Results on 27 compounds are retold here after patent US9382188B2, “Aromatic ring compound” (TAKEDA PHARMACEUTICAL COMPANY LIMITED, priority 2012, dated 2016).

The target in the test is T1, human GPR40 (Homo sapiens, UniProt O14842).
T1 construct: expressed in transfected cells
The test can be described thus: Evaluation of human GPR40 agonist activity with increase in intracellular Ca2+ concentration as an index (FLIPR Tetra). The test is classed as cell-based. Particulars: test compound 1 μM; CHO(dhfr-) cells stably expressing human GPR40; 100% = activity of 1 μM WO2009/048527 Example 99.2, 0% = DMSO. Here is the method: Evaluation of human GPR40 agonist activity with increase in intracellular Ca^2+ concentration as an index
CHO(dhfr-) cells that stably expressed human GPR40 were suspended in MEMα (Nikken Bio Medical Laboratory) containing 10% dialysis serum (GEMINI BIO-PRODUCTS), 10 mM HEPES (Invitrogen), 100 U/mL penicillin, 100 μg/mL streptomycin (Invitrogen), and plated on a 384 well black/clear cell culture plate at 10,000 cells/well. After culture overnight in a CO2 incubator at 37° C., the culture supernatant was removed, and a loading buffer [dye attached to Calcium 5 Assay Kit (Molecular Devices) was dissolved in an assay buffer (20 mM HEPES, 0.2% fatty acid-free BSA (Sigma-Aldrich), 2.5 mM probenecid (DOJINDO)-containing HBSS (Invitrogen)) added with 0.025% Cremophor EL (DOJINDO)] was added at 37.5 μL/well. After incubation in a CO2 incubator at 37° C. for 1 hr, the cells were stood at room temperature for 15 min, an assay buffer containing the test compound at a final concentration of 1 μM was added at 12.5 μL/well in FLIPR Tetra (Molecular Devices), and the fluorescence amount was successively measured. Human GPR40 agonist activity calculated using an increase in the intracellular Ca^2+ concentration as an index, wherein the activity of 1 μM of the compound described in WO 2009/048527 (WO2009/048527 Example 99.2) was 100%, and the activity when DMSO was added instead of the test compound was 0%.

T1 sequence (O14842 whole entry): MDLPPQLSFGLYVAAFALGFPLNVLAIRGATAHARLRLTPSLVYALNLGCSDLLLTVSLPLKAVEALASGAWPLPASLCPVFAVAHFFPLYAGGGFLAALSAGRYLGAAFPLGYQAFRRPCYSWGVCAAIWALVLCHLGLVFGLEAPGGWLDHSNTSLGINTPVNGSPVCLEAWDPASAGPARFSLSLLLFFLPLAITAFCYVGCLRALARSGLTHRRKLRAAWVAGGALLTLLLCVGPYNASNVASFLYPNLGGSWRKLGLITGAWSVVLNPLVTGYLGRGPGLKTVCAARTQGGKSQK

Turning to `COc1ccc(F)c(-c2ccc(OCc3cccc(OCC(=O)O)c3)nc2CC(C)(C)C)c1` [Example 1, (3-(((6-(2,2-dimethylpropyl)-5-(2-fluoro-5-methoxyphenyl)pyridin-2-yl)oxy)methyl)phenoxy)acetic acid], the activation at 1 µM is 98%.

The compound `COc1ccc(F)c(-c2ccc(OCc3cccc(OCC(=O)O)c3)cc2CC(C)(C)C)c1` [Example 2, (3-(((2-(2,2-dimethylpropyl)-2′-fluoro-5′-methoxybiphenyl-4-yl)oxy)methyl)phenoxy)acetic acid] returned an activation at 1 µM of 108%.

As for `COc1ccc(F)c(-c2ccc(OCc3cccc(C(CC(=O)O)C4CC4)c3)cc2CC(C)(C)C)c1` (stereo not drawn) [Example 3, 3-cyclopropyl-3-(3-(((2-(2,2-dimethylpropyl)-2′-fluoro-5′-methoxybiphenyl-4-yl)oxy)methyl)phenyl)propanoic acid], the activation at 1 µM came out at 103%.

`COc1ccc(F)c(-c2ccc(OCc3cccc(C(CC(=O)O)C4CC4)c3)nc2CC(C)(C)C)c1` (stereo not drawn) [Example 4, 3-cyclopropyl-3-(3-(((6-(2,2-dimethylpropyl)-5-(2-fluoro-5-methoxyphenyl)pyridin-2-yl)oxy)methyl)phenyl)propanoic acid] yielded an activation at 1 µM of 110%.

Turning to `COc1ccc(F)c(-c2ccc(OCc3cccc(C(CC(=O)O)C4CC4)c3)nc2CC(C)(C)C)c1` (stereo not drawn) [Example 6, sodium 3-cyclopropyl-3-(3-(((6-(2,2-dimethylpropyl)-5-(2-fluoro-5-methoxyphenyl)pyridin-2-yl)oxy)methyl)phenyl)propanoate], the “Human GPR40 agonist activity (increase in intracellular Ca2+ concentration)” value was 98%.

As to `COc1ccc(F)c(-c2ccc(OCc3cccc(CCC(=O)O)c3)cc2CC(C)(C)C)c1` [Example 7, 3-(3-(((2-(2,2-dimethylpropyl)-2′-fluoro-5′-methoxybiphenyl-4-yl)oxy)methyl)phenyl)propanoic acid], the activation at 1 µM amounted to 108%.

In turn, `COc1ccc(F)c(-c2ccc(NCc3cccc(C(CC(=O)O)C4CC4)c3)cc2CC(C)(C)C)c1` (stereo not drawn) [Example 8, 3-cyclopropyl-3-(3-(((2-(2,2-dimethylpropyl)-2′-fluoro-5′-methoxybiphenyl-4-yl)amino)methyl)phenyl)propanoic acid] showed an activation at 1 µM of 98%.

`COc1ccc(F)c(-c2ccc(N(C)Cc3cccc(C(CC(=O)O)C4CC4)c3)cc2CC(C)(C)C)c1` (stereo not drawn) [Example 9, 3-cyclopropyl-3-(3-(((2-(2,2-dimethylpropyl)-2′-fluoro-5′-methoxybiphenyl-4-yl)(methyl)amino)methyl)phenyl)propanoic acid] had an activation at 1 µM of 103%.

In turn, `COc1ccc(F)c(-c2ccc(N(Cc3cccc(C(CC(=O)O)C4CC4)c3)CC(F)(F)F)cc2CC(C)(C)C)c1` (stereo not drawn) [Example 11, 3-cyclopropyl-3-(3-(((2-(2,2-dimethylpropyl)-2′-fluoro-5′-methoxybiphenyl-4-yl)(2,2,2-trifluoroethyl)amino)methyl)phenyl)propanoic acid] registered an activation at 1 µM of 106%.

As for `COc1ccc(F)c(-c2ccc(SCc3cccc(C(CC(=O)O)C4CC4)c3)cc2CC(C)(C)C)c1` (stereo not drawn) [Example 12, 3-cyclopropyl-3-(3-(((2-(2,2-dimethylpropyl)-2′-fluoro-5′-methoxybiphenyl-4-yl)sulfanyl)methyl)phenyl)propanoic acid], the activation at 1 µM came to 113%.

The compound `COc1ccc(F)c(-c2ccc(OCc3cccc(C(CC(=O)O)C4CC4)c3)cc2-c2ccc(C(F)(F)F)cc2)c1` (stereo not drawn) [Example 17, 3-cyclopropyl-3-(3-(((2-fluoro-5-methoxy-4″-(trifluoromethyl)-1,1′:2′,1″-terphenyl-4′-yl)oxy)methyl)phenyl)propanoic acid] registered an activation at 1 µM of 98%.

Compound `COc1ccc(F)c(-c2ccc(OCc3cccc(C(CC(=O)O)C4CC4)c3)cc2-c2cnc(C)s2)c1` (stereo not drawn) [Example 19, 3-cyclopropyl-3-(3-(((2′-fluoro-5′-methoxy-2-(2-methyl-1,3-thiazol-5-yl)biphenyl-4-yl)oxy)methyl)phenyl)propanoic acid] displayed an activation at 1 µM of 120%.

The compound `COc1ccc(F)c(-c2ccc(OCc3cccc(C(CC(=O)O)C4CC4)c3)c(CCCC(C)(C)C)c2)c1` (stereo not drawn) [Example 21, 3-cyclopropyl-3-(3-(((3-(4,4-dimethylpentyl)-2′-fluoro-5′-methoxybiphenyl-4-yl)oxy)methyl)phenyl)propanoic acid] had an activation at 1 µM of 103%.

`COc1ccc(F)c(-c2ncc(OCc3cccc(C(CC(=O)O)C4CC4)c3)cc2CC(C)(C)C)c1` (stereo not drawn) [Example 22, 3-cyclopropyl-3-(3-(((5-(2,2-dimethylpropyl)-6-(2-fluoro-5-methoxyphenyl)pyridin-3-yl)oxy)methyl)phenyl)propanoic acid] yielded an activation at 1 µM of 99%.

As for `COc1ccc(F)c(-c2ccc(OCc3cc(C(CC(=O)O)C4CC4)ccn3)cc2CC(C)(C)C)c1` (stereo not drawn) [Example 24, 3-cyclopropyl-3-(2-(((2-(2,2-dimethylpropyl)-2′-fluoro-5′-methoxybiphenyl-4-yl)oxy)methyl)pyridin-4-yl)propanoic acid], the activation at 1 µM was found to be 106%.

`COc1ccc(F)c(-c2ccc(OCc3cc(C(CC(=O)O)C4CC4)ccn3)nc2CC(C)(C)C)c1` (stereo not drawn) [Example 25, 3-cyclopropyl-3-(2-(((6-(2,2-dimethylpropyl)-5-(2-fluoro-5-methoxyphenyl)pyridin-2-yl)oxy)methyl)pyridin-4-yl)propanoic acid] registered an activation at 1 µM of 108%.

With `COc1ccc(F)c(-c2ccc(OCc3cccc(C(CC(=O)O)C4CC4)c3)cc2CC(C)(C)C#N)c1` (stereo not drawn) [Example 26, 3-(3-(((2-(2-cyano-2-methylpropyl)-2′-fluoro-5′-methoxybiphenyl-4-yl)oxy)methyl)phenyl)-3-cyclopropylpropanoic acid], the activation at 1 µM is 105%.

Turning to `COc1ccc(F)c(-c2ccc(OCc3cc(C(CC(=O)O)C4CC4)ccn3)cc2CC(C)(C)C#N)c1` (stereo not drawn) [Example 27, 3-(2-(((2-(2-cyano-2-methylpropyl)-2′-fluoro-5′-methoxybiphenyl-4-yl)oxy)methyl)pyridin-4-yl)-3-cyclopropylpropanoic acid], the activation at 1 µM came to 119%.

Take `COc1ccc(F)c(-c2ccc(OCc3cccc(C(CC(=O)O)C4CC4)c3)cc2-c2ccc(C#N)s2)c1` (stereo not drawn) [Example 28, 3-(3-(((2-(5-cyano-2-thienyl)-2′-fluoro-5′-methoxybiphenyl-4-yl)oxy)methyl)phenyl)-3-cyclopropylpropanoic acid]: the activation at 1 µM was found to be 95%.

The compound `COc1ccc(F)c(-c2ccc(OCc3cc(C(CC(=O)O)C4CC4)ncn3)nc2CC(C)(C)C)c1` (stereo not drawn) [Example 30, 3-cyclopropyl-3-(6-(((6-(2,2-dimethylpropyl)-5-(2-fluoro-5-methoxyphenyl)pyridin-2-yl)oxy)methyl)pyrimidin-4-yl)propanoic acid] gave an activation at 1 µM of 103%.

Compound `COc1ccc(F)c(-c2ccc(OCc3cc(C(CC(=O)O)C4CC4)ncn3)cc2CC(C)(C)C)c1` (stereo not drawn) [Example 31, 3-cyclopropyl-3-(6-(((2-(2,2-dimethylpropyl)-2′-fluoro-5′-methoxybiphenyl-4-yl)oxy)methyl)pyrimidin-4-yl)propanoic acid] came in with an activation at 1 µM of 108%.

Turning to `COc1ccc(F)c(-c2ccc(C(F)Cc3cccc(CCC(=O)O)c3)nc2CC(C)(C)C)c1` (stereo not drawn) [Example 36, 3-(3-(2-(6-(2,2-dimethylpropyl)-5-(2-fluoro-5-methoxyphenyl)pyridin-2-yl)-2-fluoroethyl)phenyl)propanoic acid], the activation at 1 µM stood at 102%.

In turn, `COc1ccc(F)c(-c2ccc(OCc3cccc(C(CC(=O)O)C4CC4)c3)cc2OCC(C)(C)C)c1` (stereo not drawn) [Example 38, 3-cyclopropyl-3-(3-(((2-(2,2-dimethylpropoxy)-2′-fluoro-5′-methoxybiphenyl-4-yl)oxy)methyl)phenyl)propanoic acid] showed an activation at 1 µM of 111%.

Turning to `COc1ccc(F)c(-c2ccc(OCc3cccc(C(CC(=O)O)C4CCCC4)c3)cc2CC(C)(C)C)c1` (stereo not drawn) [Example 39, 3-cyclopentyl-3-(3-(((2-(2,2-dimethylpropyl)-2′-fluoro-5′-methoxybiphenyl-4-yl)oxy)methyl)phenyl)propanoic acid], the activation at 1 µM amounted to 105%.

`COc1ccc(F)c(-c2ccc(OCc3cccc(C(CC(=O)O)C4CCCCC4)c3)cc2CC(C)(C)C)c1` (stereo not drawn) [Example 40, 3-cyclohexyl-3-(3-(((2-(2,2-dimethylpropyl)-2′-fluoro-5′-methoxybiphenyl-4-yl)oxy)methyl)phenyl)propanoic acid] had an activation at 1 µM of 114%.

Consider `COc1ccc(F)c(-c2ccc(OCc3cccc(C(CC(=O)O)C4CC4)c3)cc2CC2(C#N)CCCC2)c1` (stereo not drawn) [Example 41, 3-(3-(((2-((1-cyanocyclopentyl)methyl)-2′-fluoro-5′-methoxybiphenyl-4-yl)oxy)methyl)phenyl)-3-cyclopropylpropanoic acid], for which the activation at 1 µM amounted to 101%.

`COc1ccc(F)c(-c2ccc(OCc3cccc(C(CC(=O)O)C4CCC4)c3)cc2CC(C)(C)C)c1` (stereo not drawn) [Example 42, 3-cyclobutyl-3-(3-(((2-(2,2-dimethylpropyl)-2′-fluoro-5′-methoxybiphenyl-4-yl)oxy)methyl)phenyl)propanoic acid] yielded an activation at 1 µM of 104%.
